Source: PubChem BioAssay (NCI)
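Abbreviation: GI50, concentration required for 50% inhibition of growth. TGI: concentration producing complete growth inhibition.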

Legend:
Assay in all cases: inhibition of tumour cell growth, NCI panel, 384-well format
786-0 renal = test system: 786-0 renal
A498 renal = test system: A498 renal
A549 NSCLC = test system: A549 NSCLC
ACHN renal = test system: ACHN renal
BT-549 breast = test system: BT-549 breast
CAKI-1 renal = test system: CAKI-1 renal
CCRF-CEM leukemia = test system: CCRF-CEM leukemia
DU-145 prostate = test system: DU-145 prostate
EKVX NSCLC = test system: EKVX NSCLC
HCC-2998 colon = test system: HCC-2998 colon
HCT-116 colon = test system: HCT-116 colon
HCT-15 colon = test system: HCT-15 colon
HL-60(TB) leukemia = test system: HL-60(TB) leukemia
HOP-62 NSCLC = test system: HOP-62 NSCLC
HOP-92 NSCLC = test system: HOP-92 NSCLC
HS 578T breast = test system: HS 578T breast
HT29 colon = test system: HT29 colon
IGROV1 ovarian = test system: IGROV1 ovarian
K-562 leukemia = test system: K-562 leukemia
KM12 colon = test system: KM12 colon
LOX IMVI melanoma = test system: LOX IMVI melanoma
M14 melanoma = test system: M14 melanoma
MALME-3M melanoma = test system: MALME-3M melanoma
MCF7 breast = test system: MCF7 breast
MDA-MB-231 breast = test system: MDA-MB-231 breast
MDA-MB-435 melanoma = test system: MDA-MB-435 melanoma
MDA-MB-468 breast = test system: MDA-MB-468 breast
MOLT-4 leukemia = test system: MOLT-4 leukemia
NCI-H226 lung = test system: NCI-H226 lung
NCI-H23 lung = test system: NCI-H23 lung
NCI-H322M lung = test system: NCI-H322M lung
NCI-H460 NSCLC = test system: NCI-H460 NSCLC
NCI-H522 lung = test system: NCI-H522 lung
NCI/ADR-RES ovarian = test system: NCI/ADR-RES ovarian
OVCAR-3 ovarian = test system: OVCAR-3 ovarian
OVCAR-4 ovarian = test system: OVCAR-4 ovarian
OVCAR-5 ovarian = test system: OVCAR-5 ovarian
OVCAR-8 ovarian = test system: OVCAR-8 ovarian
PC-3 prostate = test system: PC-3 prostate
RPMI-8226 leukemia = test system: RPMI-8226 leukemia
RXF 393 renal = test system: RXF 393 renal
SF-268 CNS = test system: SF-268 CNS
SF-295 CNS = test system: SF-295 CNS
SF-539 CNS = test system: SF-539 CNS
SK-MEL-2 melanoma = test system: SK-MEL-2 melanoma
SK-MEL-28 melanoma = test system: SK-MEL-28 melanoma
SK-MEL-5 melanoma = test system: SK-MEL-5 melanoma
SK-OV-3 ovarian = test system: SK-OV-3 ovarian
SN12C renal = test system: SN12C renal
SNB-19 CNS = test system: SNB-19 CNS
SNB-75 CNS = test system: SNB-75 CNS
SR leukemia = test system: SR leukemia
SW-620 colon = test system: SW-620 colon
T-47D breast = test system: T-47D breast
TK-10 renal = test system: TK-10 renal
U251 glioblastoma = test system: U251 glioblastoma
UACC-257 melanoma = test system: UACC-257 melanoma
UACC-62 melanoma = test system: UACC-62 melanoma
UO-31 renal = test system: UO-31 renal

Nc1nc(Cl)nc2c1ncn2C1OC(CO)C(O)C1F (stereo unspecified)
GI50 ([…]-0 renal): 0.0975 µM | GI50 (A498 renal): 0.324 µM | TGI (A498 renal): > 23.1 µM | GI50 (A549 NSCLC): 0.176 µM | TGI (A549 NSCLC): > 100 µM | GI50 (ACHN renal): 0.122 µM | TGI (ACHN renal): 0.427 µM | GI50 (BT-549 breast): 0.0774 µM | TGI (BT-549 breast): 0.483 µM | GI50 (CAKI-1 renal): 0.0915 µM | GI50 (CCRF-CEM leukemia): 0.0157 µM | TGI (CCRF-CEM leukemia): 0.0297 µM | GI50 (DU-145 prostate): 0.277 µM | GI50 (EKVX NSCLC): 0.914 µM | GI50 (HCC-2998 colon): 0.0346 µM | TGI (HCC-2998 colon): > 100 µM | GI50 (HCT-116 colon): 0.0576 µM | TGI (HCT-116 colon): > 100 µM | GI50 (HCT-15 colon): 0.202 µM | TGI (HCT-15 colon): > 100 µM | GI50 (HL-60(TB) leukemia): 0.0205 µM | TGI (HL-60(TB) leukemia): 0.0368 µM | GI50 (HOP-62 NSCLC): 0.0419 µM | TGI (HOP-62 NSCLC): 0.15 µM | GI50 (HOP-92 NSCLC): 0.301 µM | TGI (HOP-92 NSCLC): > 100 µM | GI50 (HS 578T breast): 0.43 µM | TGI (HS 578T breast): > 22.8 µM | GI50 (HT29 colon): 0.51 µM | TGI (HT29 colon): > 100 µM | GI50 (IGROV1 ovarian): 0.419 µM | TGI (IGROV1 ovarian): > 100 µM | GI50 (K-562 leukemia): 0.0804 µM | TGI (K-562 leukemia): > 100 µM | GI50 (KM12 colon): 0.323 µM | TGI (KM12 colon): > 100 µM | GI50 (LOX IMVI melanoma): 0.306 µM | TGI (LOX IMVI melanoma): 0.88 µM | GI50 (M14 melanoma): 0.0748 µM | TGI (M14 melanoma): 0.29 µM | GI50 (MALME-3M melanoma): 0.375 µM | TGI (MALME-3M melanoma): > 100 µM | GI50 (MCF7 breast): 0.2 µM | TGI (MCF7 breast): > 100 µM | GI50 (MDA-MB-231 breast): 0.346 µM | TGI (MDA-MB-231 breast): > 100 µM | GI50 (MDA-MB-435 melanoma): 0.261 µM | TGI (MDA-MB-435 melanoma): > 100 µM | GI50 (MDA-MB-468 breast): 0.253 µM | TGI (MDA-MB-468 breast): 0.699 µM | GI50 (MOLT-4 leukemia): 0.0148 µM | TGI (MOLT-4 leukemia): 0.0283 µM | GI50 (NCI-H226 lung): 0.775 µM | TGI (NCI-H226 lung): 3.58 µM | GI50 (NCI-H23 lung): 0.0377 µM | TGI (NCI-H23 lung): 0.114 µM | GI50 (NCI-H322M lung): 1.85 µM | TGI (NCI-H322M lung): > 100 µM | GI50 (NCI-H460 NSCLC): 0.177 µM | TGI (NCI-H460 NSCLC): 0.376 µM | GI50 (NCI-H522 lung): 0.165 µM | TGI (NCI-H522 lung): > 28.9 µM | GI50 (NCI/ADR-RES ovarian): 0.0357 µM | TGI (NCI/ADR-RES ovarian): 1.24 µM | GI50 (OVCAR-3 ovarian): 0.55 µM | TGI (OVCAR-3 ovarian): > 100 µM | GI50 (OVCAR-4 ovarian): > 100 µM | TGI (OVCAR-4 ovarian): > 100 µM | GI50 (OVCAR-5 ovarian): 0.515 µM | TGI (OVCAR-5 ovarian): > 100 µM | GI50 (OVCAR-8 ovarian): 0.0315 µM | TGI (OVCAR-8 ovarian): > 100 µM | GI50 (PC-3 prostate): > 20.9 µM | TGI (PC-3 prostate): > 100 µM | GI50 (RPMI-8226 leukemia): 1.73 µM | TGI (RPMI-8226 leukemia): 3.78 µM | GI50 (RXF 393 renal): 7.36 µM | TGI (RXF 393 renal): > 100 µM | GI50 (SF-268 CNS): 0.17 µM | TGI (SF-268 CNS): 0.692 µM | GI50 (SF-295 CNS): 0.724 µM | TGI (SF-295 CNS): 1.61 µM | GI50 (SF-539 CNS): 0.612 µM | TGI (SF-539 CNS): 1.82 µM | GI50 (SK-MEL-2 melanoma): 0.304 µM | TGI (SK-MEL-2 melanoma): 0.697 µM | GI50 (SK-MEL-28 melanoma): 0.106 µM | TGI (SK-MEL-28 melanoma): > 100 µM | GI50 (SK-MEL-5 melanoma): 0.0616 µM | TGI (SK-MEL-5 melanoma): 0.16 µM | GI50 (SK-OV-3 ovarian): 0.315 µM | TGI (SK-OV-3 ovarian): > 100 µM | GI50 (SN12C renal): 0.0561 µM | TGI (SN12C renal): 0.401 µM | GI50 (SNB-19 CNS): 0.0726 µM | GI50 (SNB-75 CNS): 1.26 µM | TGI (SNB-75 CNS): 7.99 µM | GI50 (SR leukemia): 0.212 µM | TGI (SR leukemia): 0.38 µM | GI50 (SW-620 colon): 0.401 µM | TGI (SW-620 colon): > 100 µM | GI50 (T-47D breast): 2.85 µM | TGI (T-47D breast): > 100 µM | GI50 (TK-10 renal): 0.532 µM | TGI (TK-10 renal): > 100 µM | GI50 (U251 glioblastoma): 0.259 µM | TGI (U251 glioblastoma): 2.7 µM | GI50 (UACC-257 melanoma): 0.412 µM | GI50 (UACC-62 melanoma): 0.208 µM | TGI (UACC-62 melanoma): 0.476 µM | GI50 (UO-31 renal): 0.234 µM
